Patent US20200206196A1, “Antiviral Drugs” (priority 2017, published 2020)
Residues, ends and D or L forms follow the SMILES beside them.

Columns and labels:
HeV [1] = format: cell-based, Hendra virus
NiV = format: cell-based, Nipah virus
RSV = format: cell-based, RSV (strain A2)
[2] = tested on: vesicular stomatitis virus (VSV); format: cell-based
[3] = tested on: influenza A virus (A/WSN/33); format: cell-based, Influenza A/WSN/33 (H1N1)
HeLa cells [4] = test: Alamar blue assay of metabolic activity; format: cell-based; conditions: HeLa cells treated for 26 h, vs vehicle or media
[5] = tested on: HeV-F and HeV-G mediated cell-cell fusion; format: cell-based, Hendra virus
HeV [6] = format: cell-based, Hendra virus; remark: listed apart in the source
HeV [7] = format: cell-based, Hendra virus; remark: listed apart in the source
HeLa cells [8] = test: Cell viability: relative cell numbers (DAPI nuclei count); conditions: 26 h post-treatment, concentrations resulting in antiviral activity
HeV [9] = format: cell-based, Hendra virus; remark: listed apart in the source

SMILES | HeV infection (HeV titres), dose response (HeV [1]) | reduction in HeV titers (HeV [1]) | reduction in virus titres, HeV (HeV [1]) | reduction in virus titres, NiV (NiV) | reduction in virus titres, RSV (RSV) | reduction in virus titres, VSV [2] | reduction in virus titres, A/WSN/33 [3] | change in metabolic activity (Alamar blue) (HeLa cells [4]) | cell-cell fusion of target cells with HeV-F/HeV-G effector cells [5] | intracellular viral RNA levels (HeV [6]) | viral protein production (P protein and N protein) (HeV [7]) | impact on cell numbers (HeLa cells [8]) | inhibition of viral protein synthesis (virus antigen levels per well) (HeV [9]) | inhibition of virus-induced cell death (cell numbers per well) (HeV [9])
CCOc1nc2cccc(C(=O)O)c2n1Cc1ccc(-c2ccccc2-c2nnn[nH]2)cc1 [Candesartan] | inhibited HeV infection in a dose-dependent manner |  |  |  |  |  |  |  |  |  |  |  |  | 
CCCc1nc2c(C)cc(-c3nc4ccccc4n3C)cc2n1Cc1ccc(-c2ccccc2C(=O)O)cc1 [Telmisartan] | inhibited HeV infection in a dose-dependent manner | ~95% | significant reduction in virus titres | significant reduction in virus titres | significant reduction in virus titres | significant reduction in virus titres | not for A/WSN/33 | no significant change in metabolic activity | comparable to target cells treated with vehicle | significantly reduced intracellular viral RNA levels | almost completely abolished | mild impact on cell numbers |  | 
CSCC[C@@H](C=O)NC(=O)[C@H](CC(C)C)NC(=O)[C@H](CC(C)C)NC(C)=O [calpain inhibitor II] (Ac-Leu-Leu-Met-aldehyde) |  |  |  |  |  |  |  |  |  |  |  |  | more effective than E64D | more effective than E64D
